Laboratory results published in patent publication US8802597B2, “Herbicidal pyrimidines” (E I du Pont de Nemours and Company, priority 2003, dated 2014).

Experiments:
Format in all cases: in vivo
[1] = test system: morningglory (Ipomoea spp.); assay: Test A pre/postemergence
In short: (§1)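 Soil: loam blended with sand. Formulation: non-phytotoxic solvent mixture with surfactant. Timing: preemergence soil spray plus concurrent postemergence spray (plants 2–10 cm, 1–2 leaves). Readout: visual injury versus untreated controls at ~10 days, 0–100.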

[2] = test system: crabgrass (Digitaria sanguinalis); assay: Test A pre/postemergence
In short: as §1

[3] = test system: velvetleaf (Abutilon theophrasti); assay: Test A pre/postemergence
In short: as §1

[4] = test system: barnyardgrass (Echinochloa crus-galli); assay: Test A pre/postemergence
In short: as §1

[5] = test system: redroot pigweed (Amaranthus retroflexus); assay: Test A pre/postemergence
In short: as §1

[6] = test system: giant foxtail (Setaria faberi); assay: Test A pre/postemergence
In short: as §1

[7] = test system: goosegrass (Eleusine indica); assay: Test C pre/postemergence; conditions: Postemergence
In short: (§2)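 Seeds sown and sprayed preemergence with test compound in non-phytotoxic solvent containing surfactant; postemergence sprays, same formulation, went onto plants 2 to 18 cm tall (1- to 4-leaf stage). Plants held in greenhouse 12 to 14 days, then visually rated against untreated controls on a 0–100 scale (0 no effect, 100 complete control).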

[8] = test system: velvetleaf (Abutilon theophrasti); assay: Test C pre/postemergence; conditions: Postemergence
In short: as §2

[9] = test system: giant foxtail (Setaria faberii); assay: Test C pre/postemergence; conditions: Postemergence
In short: as §2

[10] = test system: lambsquarters (Chenopodium album); assay: Test C pre/postemergence; conditions: Postemergence
In short: as §2

[11] = test system: chickweed (Stellaria media); assay: Test C postemergence
In short: as §2

[12] = Postemergence, 125 g ai/ha, 0 to 100 scale (0 no effect, 100 complete control)
[13] = Postemergence, 500 g ai/ha, 0 to 100 scale (0 no effect, 100 complete control)
[14] = Preemergence, 125 g ai/ha, 0 to 100 scale where 0 is no effect and 100 is complete control, approximately ten days
[15] = Preemergence, 500 g ai/ha, 0 to 100 scale where 0 is no effect and 100 is complete control, approximately ten days
[16] = 125 g ai/ha, scale 0 to 100 (0 no effect, 100 complete control)

Structure (SMILES): Nc1nc(-c2ccc(Br)cc2)nc(C(=O)O)c1Br [Compound 136]
- Plant response rating, Morningglory [1, 12]: 70
- Plant response rating, Morningglory [1, 13]: 80
- Plant response rating, Morningglory [1, 14]: 10
- Plant response rating, Morningglory [1, 15]: 20
- Plant response rating, Crabgrass [2, 12]: 35
- Plant response rating, Crabgrass [2, 13]: 70
- Plant response rating, Crabgrass [2, 14]: 20
- Plant response rating, Crabgrass [2, 15]: 60
- Plant response rating, Velvetleaf [3, 12]: 85
- Plant response rating, Velvetleaf [3, 13]: 95
- Plant response rating, Velvetleaf [3, 14]: 30
- Plant response rating, Velvetleaf [3, 15]: 75
- Plant response rating, Barnyardgrass [4, 12]: 50
- Plant response rating, Barnyardgrass [4, 13]: 80
- Plant response rating, Barnyardgrass [4, 14]: 5
- Plant response rating, Barnyardgrass [4, 15]: 40
- Plant response rating, Pigweed [5, 12]: 85
- Plant response rating, Pigweed [5, 13]: 100
- Plant response rating, Pigweed [5, 14]: 45
- Plant response rating, Pigweed [5, 15]: 100
- Plant response rating, Foxtail, Giant [6, 12]: 75
- Plant response rating, Foxtail, Giant [6, 13]: 80
- Plant response rating, Foxtail, Giant [6, 14]: 10
- Plant response rating, Foxtail, Giant [6, 15]: 60
- Plant response rating (scale of 0 to 100), Goosegrass ([7]; 16 g ai/ha): 50
- Plant response rating (scale of 0 to 100), Goosegrass ([7]; 31 g ai/ha): 65
- Plant response rating (scale of 0 to 100), Goosegrass ([7]; 62 g ai/ha): 75
- Goosegrass plant response rating [7, 16]: 80
- Plant response rating (scale of 0 to 100), Velvetleaf ([8]; 16 g ai/ha): 85
- Plant response rating (scale of 0 to 100), Velvetleaf ([8]; 31 g ai/ha): 85
- Plant response rating (scale of 0 to 100), Velvetleaf ([8]; 62 g ai/ha): 90
- Velvetleaf plant response rating [8, 16]: 95
- Plant response rating (scale of 0 to 100), Foxtail, Giant ([9]; 16 g ai/ha): 65
- Plant response rating (scale of 0 to 100), Foxtail, Giant ([9]; 31 g ai/ha): 75
- Plant response rating (scale of 0 to 100), Foxtail, Giant ([9]; 62 g ai/ha): 75
- Foxtail, Giant plant response rating [9, 16]: 85
- Plant response rating (scale of 0 to 100), Lambsquarters ([10]; 16 g ai/ha): 95
- Plant response rating (scale of 0 to 100), Lambsquarters ([10]; 31 g ai/ha): 95
- Plant response rating (scale of 0 to 100), Lambsquarters ([10]; 62 g ai/ha): 95
- Lambsquarters plant response rating [10, 16]: 95
- Plant response rating (scale of 0 to 100), Chickweed ([11]; 16 g ai/ha): 45
- Plant response rating (scale of 0 to 100), Chickweed ([11]; 31 g ai/ha): 50
- Plant response rating (scale of 0 to 100), Chickweed ([11]; 62 g ai/ha): 50
- Chickweed plant response rating [11, 16]: 50
